The values that follow come from US6334944B1, “Process for producing an amino acid-N,N-diacetic acid and its salts” (Showa Denko K.K., priority 1998, dated 2002).

A short description of the data set: Hygroscopicity and redissolution of dried powder or crystal. As to conditions: for Hygroscopicity: dried powder or crystal. Type of data set: physicochemical. The protocol: The powder contained 9.98% of calcium.
The crystal was dried in air at 25° C. to reduce the moisture content to 0.7%.

For `O=C([O-])CCC(C(=O)[O-])N(CC(=O)[O-])CC(=O)[O-].[Fe+3].[NH4+]` (stereo not drawn) [Example 22, ammonium ferric salt of glutamic acid-N,N-diacetic acid], the Hygroscopicity result is “free of hygroscopicity”.

As for “calcium disodium glutamic acid-N,N-diacetate [Example 13]”, the Hygroscopicity entry is “free of hygroscopicity”. Besides, the “Dissolution of powder in water” value (spray-dried powder) is “readily dissolved in water”.
